Experimental data from US7192932B1, “Use of immunomodulating agents” (Lauras AS, priority 1997, dated 2007).
“And” between values parts separate entries of the source, which are not always exact repeats. Equal entries are not always repeated. “Also recorded” adds a separate entry of the source. Marks after values point to notes of the source that are not given here.

Legend:
Type in all cases: cell-based, human
[1] = test system: CD4+ T lymphocytes; assay: BrdU incorporation (DNA synthesis) by flow cytometry, CD4+ subset
Experimental: (§1) We next, by flow cytometry analysis of BrdU incorporation, examined anti-CD3 stimulated T lymphocyte DNA synthesis in the presence and absence of Rp-8-Br-cAMPS in subsets of CD4^+ and CD8^+ T lymphocytes in 8 CVI patients with impaired lymphocyte function and 7 controls. In CVI patients there was a significant increase in percent of BrdU^+ CD4^+ T lymphocytes when cAMP antagonist was added to cell culture [55.8 (40.7–77.0)% versus 69.6 (50.5–90.0)%, without and with antagonist, respectively, P<0.03]. In most patients the maximal increase was found at the highest concentration of Rp-8-Br-cAMPS (1000 μM).

[2] = test system: CD8+ T lymphocytes; assay: BrdU incorporation (DNA synthesis) by flow cytometry, CD8+ subset; settings: CVI patients and controls
Experimental: as §1

[3] = test system: PBMC; assay: anti-CD3 stimulated proliferation of PBMC
Experimental: Whereas more than 100% increase in anti-CD3 induced lymphocyte proliferation was found in 7 of the CVI patients, 5 of the patients had less than 40% increase in proliferation when the cAMP antagonist was added to cells in vitro.

[4] = test system: IL-2; assay: IL-2 levels in supernatants from anti-CD3 stimulated T lymphocytes (ELISA)
Experimental: After 20 h of culture, cellfree supernatants were harvested and stored at −80° C. until analysis. The IL-2 levels in supernatants were determined by an ELISA ([…], Minneapolis, Minn.).

[5] = test system: peripheral blood CD3+ T cells; assay: TCR/CD3 (anti-CD3) stimulated T cell proliferation, [3H]-thymidine incorporation
Experimental: (§2) Human peripheral blood CD3+ T cells were purified by negative selection from 50 ml of heparin-treated blood from normal healthy donors (Ullevaal University Hospital Blood Center, Oslo. Norway) or patients. Briefly, peripheral blood mononuclear cells were isolated by density gradient (Lymphoprep, NycoMed, Oslo, Norway) centrifugation followed by negative selection using monodisperse magnetic beads directly coated with antibodies to CD14 and CD19 and rat anti-mouse IgG beads coated with antibodies to CD56 and a magnet. Magnetic beads were all from Dynal (Oslo, Norway, cat. no. 111.12, 111.04, and 110.11. respectively) whereas anti-CD56 antibody was from Pharmingen (San Diego, Calif., cat. no. 31660.d). All steps were performed at 4° C.
as §2, with “Peripheral blood” for “Human peripheral blood”, “Center, Oslo,” for “Center, Oslo.”, “selection using,” for “selection using”, “and 110.11,” for “and 110.11.”, “Calif., eat.” for “Calif., cat.”
Proliferation assays were performed by incubation of 0.75×10^6 CM+ T cells/ml in a 100 μl volume in that-bottom 96-well microtiter plates. Activation was achieved by subsequent addition of monodisperse magnetic beads coated with sheep anti-mouse IgG (Dynal. cat. no. 110.02) at a cell:bead ratio of 1:1 followed by addition of antiCD3 (clone SpvT3b) at a final dilution of 1:125,000 for the experiments shown. The optimal concentration of antibody was titrated carefully in the initial setup and parallel experiments at several different dilutions of antibody was always performed. Proliferation was analyzed by incubating, cells for 72 hours during which [^3H]thymidine was included for the last 16 hours. Cells were washed and harvested onto filters using a Scatron harvester (Suffolk, UK) and subsequently analyzed by β-scintillation counting. cAMP analogs, when used, were added 30 min prior to activation by addition of […] antibodies. 8-CPT-cAMP was from Sigorna (St. Louis, Mo.) and Sp- and Rp-8-Br-cAMPS were from BioLog Life Science Company (Bremen, Germany) and were all dissolved to concentrations of 4 to 10 mM in PBS and concentrations calculated using the extinction coefficients given by the manufacturer.

[6] = test system: IL-2 receptor; assay: IL-2 receptor binding in anti-CD3 stimulated T cells (flow cytometry)
[7] = median in 7 CVI patients, 1000 μM
[8] = median in 8 healthy controls, most pronounced effect at 100 μM

Nc1ncnc2c1nc(Br)n2C1OC2COP(O)(=S)OC2C1O (stereo not drawn) [Rp-8-Br-cAMPS, Rp-8-Bromo-cAMP-phosphorothioate]
percent of BrdU+ CD4+ T lymphocytes ([1]; 8 CVI patients, with antagonist (without: 55.8 (40.7–77.0)%), maximal mostly at 1000 μM): 69.6 (50.5–90.0) % | Effect on DNA synthesis in CD4+ lymphocytes ([1]; healthy controls): No effect | Change in percent of BrdU+ CD8+ cells [2]: no significant increase | Increase in anti-CD3 induced lymphocyte proliferation ([3]; 5 of the 20 CVI patients): less than 40% | Increase in anti-CD3 induced lymphocyte proliferation ([3]; 7 of the 20 CVI patients): more than 100% | Effect on anti-CD3 stimulated lymphocyte proliferation ([3]; CVI group): significant and concentration-dependent improvement | Effect on anti-CD3 stimulated lymphocyte proliferation ([3]; normal blood donors): did not significantly alter proliferation | Effect on IL-2 levels in supernatants ([4]; T lymphocytes from CVI patients): marked and concentration-dependent increase | Increase in IL-2 level by Rp-8-Br-cAMPS (fold increase) ([4]; individual CVI patients #1-#7, 1000 μM, 20 h culture): 4.50 fold and 4.37 fold and 2.66 fold and 2.49 fold and 2.34 fold and 1.89 fold and 1.77 fold | Highest IL-2 level when adding Rp-8-Br-cAMPS ([4]; individual CVI patients #1-#7, highest at 1000 μM, 20 h culture): 144 pg/mL and 284 pg/mL and 210 pg/mL and 249 pg/mL and 262 pg/mL and 246 pg/mL and 232 pg/mL | Highest IL-2 level when adding Rp-8-Br-cAMPS [4, 7]: 246^+ pg/mL | Increase in IL-2 level by Rp-8-Br-cAMPS (fold increase) [4, 7]: 2.50^+ fold | Highest IL-2 level when adding Rp-8-Br-cAMPS [4, 8]: 799 pg/mL | Increase in IL-2 level by Rp-8-Br-cAMPS (fold increase) [4, 8]: 1.28 fold | Proliferation level relative to levels in healthy controls ([5]; CVI patients' T cells with Rp-8-Br-cAMPS): ~25% | IL-2 concentration with enhancing effect comparable to that of cAMP antagonist ([5]; CVI patients, FIG. 7): ~15 ng/mL | Combined enhancing effects of Rp-8-Br-cAMPS and IL-2 on T lymphocyte proliferation ([5]; CVI patients, 1000 μM Rp-8-Br-cAMPS with IL-2): additive | Increase in proliferation by Rp-8-Br-cAMPS Fold increase compared to untreated ([5]; T cells from HIV+ asymptomatic patients, n = 8, median (25 to 75% range)): 1.50(1.29–1.73)^b fold | Increase in proliferation by Rp-8-Br-cAMPS Fold increase compared to untreated ([5]; T cells from HIV+ symptomatic patients, n = 10, median (25 to 75% range)): 1.62(1.48–2.00)^w fold | Increase in TCR/CD3-induced proliferation by antagonist alone ([5]; T cells from HIV-infected patients, at higher concentrations, FIG. 3D): more than 2 fold | Reversal of Sp-8-Br-cAMPS inhibition of proliferation by complementary antagonist ([5]; T cells from a HIV-infected patient, FIG. 3C): further increased the proliferation above the levels in untreated cells | Reversal of Sp-8-Br-cAMPS inhibition of proliferation by complementary antagonist ([5]; T cells from normal blood donors / healthy controls, increasing concentrations): almost completely reversed | Increase in proliferation by Rp-8-Br-cAMPS Fold increase compared to untreated ([5]; T cells from normal controls, n = 8, median (25 to 75% range)): 1.01(0.93–1.14) fold | Increase in proliferation by Rp-8-Br-cAMPS Fold increase compared to untreated ([5]; T cells from patients on triple combination therapy, n = 9, median (25 to 75% range)): 1.53(1.11–1.77)^o fold | Increase in proliferation by Rp-8-Br-cAMPS (fold increase) ([5]; T cells of individual CVI patients #1-#7): 1.73 fold and 2.10 fold and 1.87 fold and 1.34 fold and 1.37 fold and 2.45 fold and 3.67 fold | Increase in proliferation by Rp-8-Br-cAMPS Fold increase compared to untreated ([5]; T cells of individual HIV-infected patients #1-#18 without protease inhibitor therapy (Table 2a)): 2.81 fold and 2.02 fold and 2.73 fold and 1.48 fold and 1.77 fold and 1.96 fold and 1.5 fold and 1.79 fold and 1.74 fold and 1.3 fold and 1.49 fold and 1.43 fold and 1.46 fold and 1.67 fold and 1.6 fold and 1.27 fold and 1.39 fold and 1.16 fold | Increase in proliferation by Rp-8-Br-cAMPS Fold increase compared to untreated ([5]; T cells of individual patients #1-#9 receiving highly active antiretroviral therapy (Table 2b)): 2.79 fold and 2.65 fold and 1.77 fold (2×) and 1.53 fold and 1.04 fold and 1.52 fold and 0.98 fold and 1.11 fold | Increase in proliferation by Rp-8-Br-cAMPS (fold increase) ([5]; median in 7 CVI patients): 1.87^+ fold | Increase in proliferation by Rp-8-Br-cAMPS (fold increase) ([5]; median in 8 healthy controls): 1.01 fold | Effect of antagonist alone on stimulated proliferation ([5]; normal T cells / healthy controls): No increased T cell proliferation; also recorded: did not alter proliferation; also recorded: did not further enhance T cell proliferation | Increase in anti-CD3 stimulated proliferation ([5]; purified T cells, 3 of 7 CVI patients): > 100% | Effect on IL-2 receptor binding ([6]; CD4+ lymphocytes from CVI patients): moderate but significant increase | Effect on IL-2 receptor binding ([6]; cells from healthy controls): No such increase
